Results: ChEMBL document CHEMBL1806468, “A facile synthesis of 1,5-disubstituted-2-aminoimidazoles: antibiotic activity of a first generation library” (2011)

Columns and labels:
Acinetobacter baumannii [1] = test: Antimicrobial activity against multidrug-resistant Acinetobacter baumannii BAA-1605 after 16 hrs by broth microdilution method; type: functional; conditions: BAA-1605, 16 h
Staphylococcus aureus [2] = test: Antimicrobial activity against methicillin-susceptible Staphylococcus aureus ATCC 29213 after 16 hrs by broth microdilution method; type: functional; conditions: ATCC 29213, 16 h
Acinetobacter baumannii [3] = test: Inhibition of Acinetobacter baumannii ATCC 19606 biofilm formation after 24 hrs by crystal violet reporter assay; type: functional, ATCC 19606 = CIP 70.34 = JCM 6841; note: test concentration or dose not given here
Staphylococcus aureus [4] = test: Inhibition of Staphylococcus aureus ATCC 29213 biofilm formation after 24 hrs by crystal violet reporter assay; type: functional; note: test concentration or dose not given here
Acinetobacter baumannii [5] = test: Antimicrobial activity against Acinetobacter baumannii ATCC 19606 after 16 hrs by broth microdilution method; type: functional; conditions: ATCC 19606 = CIP 70.34 = JCM 6841, 16 h
Klebsiella pneumoniae = test: Antimicrobial activity against carbapenem-resistant Klebsiella pneumoniae BAA-2146 expressing […] gene after 16 hrs by broth microdilution method; type: functional; conditions: BAA-2146, 16 h
Escherichia coli [6] = test: Antimicrobial activity against Escherichia coli ATCC 35695 after 16 hrs by broth microdilution method; type: functional; conditions: ATCC 35695, 16 h
Escherichia coli [7] = test: Inhibition of Escherichia coli ATCC 35695 biofilm formation after 24 hrs by crystal violet reporter assay; type: functional; note: test concentration or dose not given here
Staphylococcus aureus [8] = test: Inhibition of Staphylococcus aureus BAA-44 biofilm formation after 24 hrs by crystal violet reporter assay; type: functional; note: test concentration or dose not given here
[9] = tested on: Staphylococcus epidermidis; test: Antimicrobial activity against Staphylococcus epidermidis ATCC 29886 after 16 hrs by broth microdilution method; type: functional; conditions: ATCC 29886, 16 h
Staphylococcus aureus [10] = test: Antimicrobial activity against methicillin-resistant Staphylococcus aureus BAA-44 after 16 hrs by broth microdilution method; type: functional; conditions: BAA-44, 16 h
[11] = tested on: Staphylococcus epidermidis; test: Antimicrobial activity against methicillin-resistant Staphylococcus epidermidis ATCC 51625 after 16 hrs by broth microdilution method; type: functional; conditions: ATCC 51625, 16 h
Acinetobacter baumannii [12] = test: Inhibition of Acinetobacter baumannii BAA-1605 biofilm formation after 24 hrs by crystal violet reporter assay; type: functional; note: test concentration or dose not given here

Question: What does the source list for CCCCCCCCCCn1c(CCCCCC)cnc1N.Cl?
Answer: MIC (Acinetobacter baumannii [1]): 8 µg/mL; MIC (Staphylococcus aureus [2]): 1 µg/mL; inhibition (INH) (Acinetobacter baumannii [3]): 91%; inhibition (INH) (Staphylococcus aureus [4]): 73%; MIC (Acinetobacter baumannii [5]): 8 µg/mL; MIC (Klebsiella pneumoniae): 32 µg/mL; MIC (Escherichia coli [6]): 1 µg/mL; inhibition (INH) (Escherichia coli [7]): 59%; inhibition (INH) (Staphylococcus aureus [8]): 83%; MIC [9]: 0.25 µg/mL; MIC (Staphylococcus aureus [10]): 1 µg/mL; MIC [11]: 1 µg/mL; inhibition (INH) (Acinetobacter baumannii [12]): 97%

Question: Which results are given for Cl.Nc1ncc(CCCCNC(=O)OCc2ccccc2)n1Cc1ccccc1?
Answer: MIC (Acinetobacter baumannii [1]): 64 µg/mL; MIC (Staphylococcus aureus [2]): 32 µg/mL; MIC (Acinetobacter baumannii [5]): 64 µg/mL; MIC (Klebsiella pneumoniae): 128 µg/mL; MIC (Escherichia coli [6]): 64 µg/mL; MIC [9]: 32 µg/mL; MIC (Staphylococcus aureus [10]): 32 µg/mL; MIC [11]: 32 µg/mL

Question: Which results are given for CCCCCn1c(CC(C)C)cnc1N.Cl?
Answer: MIC (Acinetobacter baumannii [1]): 64 µg/mL; MIC (Staphylococcus aureus [2]): > 128 µg/mL; MIC (Acinetobacter baumannii [5]): 64 µg/mL; MIC (Klebsiella pneumoniae): 128 µg/mL; MIC (Escherichia coli [6]): 64 µg/mL; MIC [9]: 32 µg/mL; MIC (Staphylococcus aureus [10]): 128 µg/mL; MIC [11]: 128 µg/mL

Question: CCCCCCc1cnc(N)n1CCCc1ccccc1.Cl was tested. Which MIC (Acinetobacter baumannii [1]) did it give?
Answer: Its MIC is 32 µg/mL.

Question: And the MIC (Staphylococcus aureus [2])?
Answer: The MIC was 8 µg/mL.

Question: What about the “inhibition (INH)” value (Acinetobacter baumannii [3]) of the same compound?
Answer: The value was 96%.

Question: And the “inhibition (INH)” value (Staphylococcus aureus [4])?
Answer: Its value is 98%.

Question: And the MIC (Acinetobacter baumannii [5])?
Answer: The MIC was 16 µg/mL.

Question: And the MIC (Klebsiella pneumoniae)?
Answer: Its MIC is 64 µg/mL.

Question: What about the MIC (Escherichia coli [6]) of the same compound?
Answer: The MIC was 8 µg/mL.

Question: What about the “inhibition (INH)” value (Escherichia coli [7]) of the same compound?
Answer: The value was 94%.

Question: What about the “inhibition (INH)” value (Staphylococcus aureus [8]) of the same compound?
Answer: Its value is 91%.

Question: What about the MIC [9] of the same compound?
Answer: Its MIC is 4 µg/mL.

Question: And the MIC (Staphylococcus aureus [10])?
Answer: Its MIC is 8 µg/mL.

Question: And the MIC [11]?
Answer: Its MIC is 16 µg/mL.

Question: What about the “inhibition (INH)” value (Acinetobacter baumannii [12]) of the same compound?
Answer: The value was 98%.

Question: Which results are given for Cl.Nc1ncc(Cc2ccccc2)n1Cc1ccccc1?
Answer: MIC (Acinetobacter baumannii [1]): > 128 µg/mL; MIC (Staphylococcus aureus [2]): > 128 µg/mL; MIC (Acinetobacter baumannii [5]): > 128 µg/mL; MIC (Klebsiella pneumoniae): > 128 µg/mL; MIC (Escherichia coli [6]): 128 µg/mL; MIC [9]: 128 µg/mL; MIC (Staphylococcus aureus [10]): > 128 µg/mL; MIC [11]: 128 µg/mL

Question: Which results are given for CCCCCCCCn1c(CC(C)C)cnc1N.Cl?
Answer: MIC (Acinetobacter baumannii [1]): 16 µg/mL; MIC (Staphylococcus aureus [2]): 16 µg/mL; inhibition (INH) (Acinetobacter baumannii [3]): 97%; inhibition (INH) (Staphylococcus aureus [4]): 93%; MIC (Acinetobacter baumannii [5]): 16 µg/mL; MIC (Klebsiella pneumoniae): 64 µg/mL; MIC (Escherichia coli [6]): 2 µg/mL; inhibition (INH) (Escherichia coli [7]): 88%; inhibition (INH) (Staphylococcus aureus [8]): 97%; MIC [9]: 2 µg/mL; MIC (Staphylococcus aureus [10]): 8 µg/mL; MIC [11]: 8 µg/mL; inhibition (INH) (Acinetobacter baumannii [12]): 96%

Question: CCCCCCCCn1c(-c2ccccc2)cnc1N.Cl was tested. Which MIC (Acinetobacter baumannii [1]) did it give?
Answer: The MIC was 64 µg/mL.

Question: And the MIC (Staphylococcus aureus [2])?
Answer: The MIC was 64 µg/mL.

Question: And the MIC (Acinetobacter baumannii [5])?
Answer: The MIC was 16 µg/mL.

Question: And the MIC (Klebsiella pneumoniae)?
Answer: Its MIC is 128 µg/mL.

Question: What about the MIC (Escherichia coli [6]) of the same compound?
Answer: The MIC was 64 µg/mL.

Question: What about the MIC [9] of the same compound?
Answer: Its MIC is 16 µg/mL.

Question: And the MIC (Staphylococcus aureus [10])?
Answer: Its MIC is 64 µg/mL.

Question: And the MIC [11]?
Answer: Its MIC is 64 µg/mL.

Question: How did the MIC (Acinetobacter baumannii [1]) turn out when CCCCCCCCCCCCn1c(CCCCCC)cnc1N.Cl was run?
Answer: The MIC was greater than 128 µg/mL.

Question: And the MIC (Staphylococcus aureus [2])?
Answer: Its MIC is 2 µg/mL.

Question: What about the MIC (Acinetobacter baumannii [5]) of the same compound?
Answer: The MIC was 64 µg/mL.

Question: And the MIC (Klebsiella pneumoniae)?
Answer: The MIC was greater than 128 µg/mL.

Question: And the MIC (Escherichia coli [6])?
Answer: Its MIC is 2 µg/mL.

Question: What about the MIC [9] of the same compound?
Answer: Its MIC is 0.5 µg/mL.

Question: What about the MIC (Staphylococcus aureus [10]) of the same compound?
Answer: The MIC was 2 µg/mL.

Question: What about the MIC [11] of the same compound?
Answer: Its MIC is 1 µg/mL.

Question: What does the source list for CCCCCCCCn1c(CCCCCC)cnc1N.Cl?
Answer: MIC (Acinetobacter baumannii [1]): 8 µg/mL; MIC (Staphylococcus aureus [2]): 2 µg/mL; MIC (Acinetobacter baumannii [5]): 8 µg/mL; MIC (Klebsiella pneumoniae): 32 µg/mL; MIC (Escherichia coli [6]): 2 µg/mL; MIC [9]: 0.125 µg/mL; MIC (Staphylococcus aureus [10]): 2 µg/mL; MIC [11]: 2 µg/mL

Question: For Cl.Nc1ncc(CCCCNC(=O)OCc2ccccc2)n1CCCc1ccccc1, which MIC (Acinetobacter baumannii [1]) is on record?
Answer: Its MIC is 32 µg/mL.

Question: What about the MIC (Staphylococcus aureus [2]) of the same compound?
Answer: Its MIC is 16 µg/mL.

Question: What about the MIC (Acinetobacter baumannii [5]) of the same compound?
Answer: The MIC was 32 µg/mL.

Question: And the MIC (Klebsiella pneumoniae)?
Answer: The MIC was 128 µg/mL.

Question: And the MIC (Escherichia coli [6])?
Answer: Its MIC is 64 µg/mL.

Question: What about the MIC [9] of the same compound?
Answer: The MIC was 16 µg/mL.

Question: And the MIC (Staphylococcus aureus [10])?
Answer: Its MIC is 16 µg/mL.

Question: What about the MIC [11] of the same compound?
Answer: The MIC was 16 µg/mL.

Question: For CC(C)Cc1cnc(N)n1CCCc1ccccc1.Cl, which MIC (Acinetobacter baumannii [1]) is on record?
Answer: The MIC was 32 µg/mL.

Question: And the MIC (Staphylococcus aureus [2])?
Answer: Its MIC is 64 µg/mL.

Question: And the “inhibition (INH)” value (Acinetobacter baumannii [3])?
Answer: Its value is 96%.

Question: What about the “inhibition (INH)” value (Staphylococcus aureus [4]) of the same compound?
Answer: The value was 87%.

Question: What about the MIC (Acinetobacter baumannii [5]) of the same compound?
Answer: Its MIC is 32 µg/mL.

Question: What about the MIC (Klebsiella pneumoniae) of the same compound?
Answer: Its MIC is 128 µg/mL.

Question: And the MIC (Escherichia coli [6])?
Answer: Its MIC is 16 µg/mL.

Question: What about the “inhibition (INH)” value (Escherichia coli [7]) of the same compound?
Answer: Its value is 92%.

Question: And the “inhibition (INH)” value (Staphylococcus aureus [8])?
Answer: The value was 96%.

Question: And the MIC [9]?
Answer: The MIC was 4 µg/mL.

Question: What about the MIC (Staphylococcus aureus [10]) of the same compound?
Answer: Its MIC is 32 µg/mL.

Question: And the MIC [11]?
Answer: The MIC was 32 µg/mL.

Question: What about the “inhibition (INH)” value (Acinetobacter baumannii [12]) of the same compound?
Answer: The value was 97%.
